Results from patent US20050080076A1 (Xanodyne Pharmacal, Inc., priority 2003, published 2005).

What was measured:
Adrenergic α1C = Adrenergic α1C (Homo sapiens, UniProt P35348); assay: Receptor binding, Adrenergic α1C
Procedure: Receptor-ligand binding studies were performed as known to one skilled in the art. […] Binding to the histamine H1 receptor, the calcium ion channel receptor, and the sodium ion channel receptor were also evaluated. […] Sulfoxide indicates the sulfoxide metabolite. […] Ki (the inhibition constants of binding) indicate binding affinity.

Adrenergic α1A = Adrenergic α1A (Homo sapiens, UniProt P25100); assay: Receptor binding, Adrenergic α1A
Chain of Adrenergic α1A (P25100 whole entry): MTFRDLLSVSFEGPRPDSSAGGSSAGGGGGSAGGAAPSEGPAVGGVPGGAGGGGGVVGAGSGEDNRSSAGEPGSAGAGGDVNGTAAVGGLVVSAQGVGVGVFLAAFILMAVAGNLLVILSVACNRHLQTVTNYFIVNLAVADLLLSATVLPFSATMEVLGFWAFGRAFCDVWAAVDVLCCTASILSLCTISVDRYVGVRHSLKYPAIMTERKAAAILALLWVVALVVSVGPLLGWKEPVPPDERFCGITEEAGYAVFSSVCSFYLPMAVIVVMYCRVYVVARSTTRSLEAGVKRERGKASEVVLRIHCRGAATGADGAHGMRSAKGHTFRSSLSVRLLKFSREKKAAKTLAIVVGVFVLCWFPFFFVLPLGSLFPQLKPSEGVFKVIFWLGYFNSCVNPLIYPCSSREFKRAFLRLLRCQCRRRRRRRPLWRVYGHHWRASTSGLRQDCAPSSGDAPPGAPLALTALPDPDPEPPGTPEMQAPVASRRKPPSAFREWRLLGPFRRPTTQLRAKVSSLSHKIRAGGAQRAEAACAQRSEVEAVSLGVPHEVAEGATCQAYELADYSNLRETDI
Procedure: Receptor-ligand binding studies were performed as known to one skilled in the art. Compounds evaluated were LMP, the parent compound, the NDM LMP metabolite of LMP, and the sulfoxide metabolite of LMP. These studies verified receptor binding and affinity by the parent compound, as well as identified other potential receptors for the parent compound and its metabolites, and identified and verified receptors and receptor affinity for the metabolites. […] Binding to the histamine H1 receptor, the calcium ion channel receptor, and the sodium ion channel receptor were also evaluated. In each of the tables, the following abbreviations are used: LMP indicates the parent compound levomepromazine. NDM LMP indicates the N-desmethyl (N-desmethyl) metabolite. Sulfoxide indicates the sulfoxide metabolite. […] Ki (the inhibition constants of binding) indicate binding affinity.

[1] = test system: human colon carcinoma cell line (CACO-2 Model); assay: Intestinal absorption assay (CACO-2 Model); assay type: in vitro ADME
[2] = test system: Primary human hepatocytes; assay: In vitro metabolism in primary human hepatocytes; assay type: in vitro ADME
P-glycoprotein (p-gp) = target: T1, P-glycoprotein (p-gp) (Homo sapiens, UniProt P08183); assay: P-glycoprotein efflux in CACO-2 Model; assay type: in vitro ADME
T1 construct: using a human colon carcinoma cell line (CACO-2 Model); endogenous in cells; host or cells: CACO-2 (human colon carcinoma cell line)
T1 sequence (P08183 whole entry): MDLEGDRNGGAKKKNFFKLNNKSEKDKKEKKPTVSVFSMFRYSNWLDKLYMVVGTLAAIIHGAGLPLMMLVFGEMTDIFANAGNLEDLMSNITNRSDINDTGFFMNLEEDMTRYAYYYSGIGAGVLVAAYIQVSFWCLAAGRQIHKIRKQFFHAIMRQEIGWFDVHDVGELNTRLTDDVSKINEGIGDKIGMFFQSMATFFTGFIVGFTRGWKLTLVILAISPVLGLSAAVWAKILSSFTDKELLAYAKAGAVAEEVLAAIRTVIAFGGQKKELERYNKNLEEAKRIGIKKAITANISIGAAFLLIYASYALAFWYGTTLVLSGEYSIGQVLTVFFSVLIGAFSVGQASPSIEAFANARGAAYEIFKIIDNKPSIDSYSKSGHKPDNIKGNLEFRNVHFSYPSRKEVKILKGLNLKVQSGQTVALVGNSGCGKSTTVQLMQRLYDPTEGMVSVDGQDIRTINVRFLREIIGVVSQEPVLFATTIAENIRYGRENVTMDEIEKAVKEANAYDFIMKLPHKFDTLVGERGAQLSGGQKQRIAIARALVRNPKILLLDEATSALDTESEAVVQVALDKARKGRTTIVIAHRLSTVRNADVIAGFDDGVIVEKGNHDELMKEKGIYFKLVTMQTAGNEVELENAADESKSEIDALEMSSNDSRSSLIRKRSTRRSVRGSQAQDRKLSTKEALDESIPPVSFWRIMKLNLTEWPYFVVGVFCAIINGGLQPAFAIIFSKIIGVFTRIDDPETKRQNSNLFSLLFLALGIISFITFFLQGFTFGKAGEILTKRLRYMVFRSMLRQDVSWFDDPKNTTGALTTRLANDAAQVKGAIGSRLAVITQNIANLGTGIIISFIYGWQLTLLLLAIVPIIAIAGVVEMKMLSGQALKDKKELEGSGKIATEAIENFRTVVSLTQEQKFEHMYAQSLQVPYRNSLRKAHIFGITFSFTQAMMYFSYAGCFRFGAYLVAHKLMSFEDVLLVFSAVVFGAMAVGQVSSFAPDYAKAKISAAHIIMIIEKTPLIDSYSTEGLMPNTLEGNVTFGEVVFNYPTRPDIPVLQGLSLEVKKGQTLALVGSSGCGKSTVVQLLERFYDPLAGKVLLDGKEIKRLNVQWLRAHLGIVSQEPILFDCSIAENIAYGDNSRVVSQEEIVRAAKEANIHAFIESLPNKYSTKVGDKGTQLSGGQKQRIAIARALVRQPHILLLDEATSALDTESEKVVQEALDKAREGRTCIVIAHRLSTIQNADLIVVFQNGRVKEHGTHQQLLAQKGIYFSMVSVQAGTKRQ

Chain of Adrenergic α1C (P35348 whole entry): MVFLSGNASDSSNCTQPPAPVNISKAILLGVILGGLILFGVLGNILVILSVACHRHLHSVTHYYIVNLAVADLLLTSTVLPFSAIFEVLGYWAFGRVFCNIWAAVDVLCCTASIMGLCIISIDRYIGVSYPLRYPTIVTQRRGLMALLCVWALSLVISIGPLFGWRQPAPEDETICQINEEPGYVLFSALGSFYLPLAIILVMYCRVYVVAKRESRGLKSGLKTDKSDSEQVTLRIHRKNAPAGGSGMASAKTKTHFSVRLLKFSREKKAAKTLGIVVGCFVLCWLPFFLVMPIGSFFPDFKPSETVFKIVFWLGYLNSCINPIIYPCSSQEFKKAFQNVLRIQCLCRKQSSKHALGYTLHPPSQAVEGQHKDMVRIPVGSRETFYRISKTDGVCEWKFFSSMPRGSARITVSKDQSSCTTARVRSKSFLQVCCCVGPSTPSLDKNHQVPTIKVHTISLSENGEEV

Row | apical to basolateral permeability coefficient relative to parent LMP [1] | gut wall (enterocyte) metabolism relative to parent LMP [1] | percent recovered through the system relative to parent LMP [1] | transport by P-glycoprotein relative to parent LMP (P-glycoprotein (p-gp)) | inhibition of efflux relative to parent LMP (P-glycoprotein (p-gp); in the presence of p-gp inhibitor verapamil) | relative efflux to influx ratio, reduction versus parent LMP (P-glycoprotein (p-gp); through the enterocyte, less than parent LMP) | SMILES | Ki (Adrenergic α1C) | Ki (Adrenergic α1A) | Phase I biotransformation [2] | Phase II biotransformation (conjugation) [2] | metabolic stability relative to LMP [2] | sulfoxide metabolite formation [2]
1 |  |  |  |  |  |  | COc1ccc2c(c1)N(C[C@H](C)CN(C)C)c1ccccc1[S+]2[O-] (stereo partly drawn) [Sulfoxide, levomepromazine sulfoxide] | 193 nM | 141 nM |  |  |  | 
2 | 1.5 fold | occurs to a lower extent | 1.5-2.0 fold | to a lesser degree than the parent LMP | at least one-half lower | at least 50% | CNCC(C)CN1c2ccccc2Sc2ccc(OC)cc21 (stereo not drawn) [NDM LMP, R(+) 2-methoxy-10-2-methyl-3-monomethylaminopropyl phenothiazine] |  |  | metabolized to only one putative primary amine metabolite | did not appear to undergo any Phase II biotransformation | much more metabolically stable than its LMP parent compound | no detectable sulfoxide metabolites were formed
